US20250034168A1, “NITROGEN-CONTAINING HETEROCYCLIC DERIVATIVE PARP INHIBITOR AND USE THEREOF” (XIZANG HAISCO PHARMACEUTICAL CO., LTD., priority 2021, published 2025)

How the values were obtained:
MDA-MB-436 cells = experiment: MDA-MB-436 cell activity test; type: cell-based; conditions: Homo sapiens
Description: Breast tumor cells MDA-MB-436 were purchased from ATCC, the culture medium was Leibovitz's L-15+10% FBS, and the cells were cultured in a CO2-free incubator at 37° C. On day 1, the cells in the exponential growth phase were collected, and the cell suspension was adjusted to 4000 cells/135 μL with the culture medium. 135 μL of the cell suspension was added to each well of a 96-well cell culture plate and incubated overnight. On day 2, compounds at different concentrations were added, and the plate was placed in the incubator and incubated for 7 days. After the incubation was completed, according to operation instructions for a CellTiter-Glo kit (Promega, G7573), 75 μL of CTG solution, which was already pre-melted and equilibrated to room temperature, was added to each well, and the mixture was uniformly mixed for 2 min using a microplate shaker. The plate was placed at room temperature for 10 min, and then […] were measured using an Envision2104 plate reader (PerkinElmer). The inhibition rate was calculated using formula (1), where RLUcompound was the readout of the drug treated group, RLUcontrol was the average value of the vehicle control group, and RLUblank was the average value of the cell-free well. The IC50 value was calculated using GraphPad Prism software.

[1] = Pharmacokinetic test in rats; type: in vivo, SD rats
Description: (§1) • 5.1.1 Experimental animals: male SD rats, about 220 g, 6-8 weeks old, 6 rats/compound, purchased from Chengdu Ddossy Experimental Animals Co., Ltd. • 5.1.2 Experimental design: on the day of the test, 6 SD rats were randomly grouped according to their body weight; the animals were fasted with water available for 12 to 14 h one day before the administration, and were fed 4 h after the administration.
(§2) Before and after the administration, 0.15 ml of blood was taken from the orbit of the animals under isoflurane anesthesia and placed in an EDTAK2 centrifuge tube. The blood was centrifuged at 5000 rpm and 4° C. for 10 min to collect plasma. The blood collection time points for the intravenous administration group and intragastric administration group were: 0, 5 min, 15 min, 30 min, 1 h, 2 h, 4 h, 6 h, 8 h, and 24 h. Before analysis and detection, all samples were stored at −80° C., and a quantitative analysis of samples was performed using LC-MS/MS.

[2] = Pharmacokinetic test in mice; type: in vivo, ICR mice
Description: as §1, with “5.2.1” for “5.1.1”, “ICR mice, 20-25” for “SD rats, about 220”, “18 mice/compound.” for “6-8 weeks old, 6 rats/compound,”, “5.2.2” for “5.1.2”, “18 ICR mice” for “6 SD rats”, “weights.” for “weight;”
as §2, with “0.06 mL” for “0.15 ml”, “intravenous” for “intravenous administration”, “0 min,” for “0,”

[3] = male, Sprague-Dawley, iv, rat plasma, i.v. 2.5 mg/kg
[4] = male, ICR, iv, mouse plasma, i.v. 2.5 mg/kg

For `CCc1cc2ncc(CN3CC=C(c4ccc(C(=O)NC)nc4)CC3)cc2[nH]c1=O` [Compound 14, 1′-((7-ethyl-6-oxo-5,6-dihydro-1,5-naphthyridin-3-yl)methyl)-N-methyl-1′,2′,3′,6′-tetrahydro-[3,4′-bipyridine]-6-carboxamide], the IC50 (MDA-MB-436 cells; MDA-MB-436, 168 h, 7 days incubation, CellTiter-Glo) was 3.2 nM, the inhibition at 10 µM (MDA-MB-436 cells; MDA-MB-436 cells, 10 μM, read-out: Max inh. % 10 μM) was 89.1% and the AUC(0-t) [1, 3] was 84.2 µg·h/mL. It also gave a clearance [1, 3] of 0.494 mL/min/kg, a Vd ([1]; male, Sprague-Dawley, iv, rat plasma, i.v. 2.5 mg/kg, read-out: Vdss) of 0.164 L/kg and an AUC(0-t) ([1]; male, Sprague-Dawley, po, rat plasma, i.g. 10 mg/kg) of 248 µg·h/mL. The F ([1]; rat, i.g. 10 mg/kg) was 73.8%, the AUC(0-t) [2, 4] was 220 µg·h/mL and the clearance [2, 4] was 0.164 mL/min/kg. It also gave a Vd ([2]; male, ICR, iv, mouse plasma, i.v. 2.5 mg/kg, read-out: Vdss) of 0.112 L/kg, an AUC(0-t) ([2]; male, ICR, po, mouse plasma, i.g. 10 mg/kg) of 829 µg·h/mL and an F ([2]; mouse, i.g. 10 mg/kg) of 94.3%.
